Reference: paper PMC7904550, “Application of grouping and read-across for the evaluation of parabens of different chain lengths with a particular focus on endocrine properties” (Archives of Toxicology, 2021)
Marks after values point to notes of the source that are not given here.

What was measured:
[1] = system: Wistar rats; test: 90-day repeated dose oral toxicity study (OECD TG 408); assay type: in vivo, rat; details: for NOAEL, 90-day repeated-dose toxicity: OECD 408 v 2018, oral gavage
Source text: (§1) Healthy and specific pathogen-free male and female (non-pregnant and nulliparous) Wistar Crl: WI(Han) rats were obtained from Charles River Laboratories (Germany). […] Upon arrival at BSL BIOSERVICE, the animals underwent an acclimatisation period of at least 5 days, and they were approximately 15–16 weeks old at the onset of the treatment period.

[2] = system: Wistar rats; test: Extended one-generation reproductive toxicity study (OECD TG 443); assay type: in vivo, rat; details: for NOAEL, EOGRTS: developmental and reproductive toxicity: OECD 443 v 2018, oral gavage
Source text: as §1

[3] = in vivo; details: for concentration at 1 h / Tmax / AUC(0-t) / Cmax: Wistar, rat, serum; for concentration at 1 h: oral; for Tmax / AUC(0-t) / Cmax: po
Procedure: These studies were conducted similarly to OECD TG 417 applying 500 and 1000 mg/kg body weight (bw) test item via oral gavage to 10 males and 10 females per dose group. Focus of the toxicokinetic evaluation was on the measurement of the serum concentrations of the parent compounds and their (common) major metabolite p-hydroxybenzoic acid by […] in order to assess the systemic uptake and elimination of the parent compounds and this major metabolite [see also ECHA ([2017a])]. The limit of quantification was determined as 10 ng/mL for all parabens, and as 130 ng/mL for p-hydroxybenzoic acid. […] On account of these major aims, investigations of the faeces and urine were not included in the toxicokinetics screening studies.

[4] = system: bacteria; details: OECD 471; ref ECHA dissemination portal; cited from earlier work
[5] = system: mammalian cells; details: OECD 476; ref ECHA dissemination portal; cited from earlier work
[6] = system: rats; details: OECD 478; ref ECHA dissemination portal; cited from earlier work
[7] = parent compound, 500 mg/kg, female
[8] = parent compound, 500 mg/kg, male
[9] = parent compound, 1000 mg/kg, female
[10] = parent compound, 1000 mg/kg, male

In the case of COC(=O)c1ccc(O)cc1 [Methyl paraben, Methyl 4-hydroxybenzoate], the “NOAEL, 90-day repeated-dose toxicity” value [1] is reported as “NOAEL: 1000 (OECD 408; v 2018) mg/kg body weight/day”, the “NOAEL, 90-day repeated-dose toxicity” value ([1]; listed as methyl paraben) is reported as 1000 mg/kg body weight/day and the “Accessory sex organs HP” value ([1]; P0) is reported as “NAE / NAE”. For the same compound, the “Adrenals HP” value ([1]; P0) was “NAE / NAE”, the Adrenals weight ([1]; P0) was “NAE / NAE” and the Brain weight ([1]; P0) was “NAE / NAE”. The “Cervix HP” value ([1]; P0) was “NAE / NAE”, the “Coagulating gland HP” value ([1]; P0) was “NAE / NAE” and the Coagulating gland weight ([1]; P0) was “NAE / NAE”. For the same compound, the “Epididymis HP” value ([1]; P0) was “NAE / NAE”, the Epididymis weight ([1]; P0) was “NAE / NAE” and the Liver weight ([1]; P0) was “NAE / NAE”. For the same compound, the “Mammary gland HP; females” value ([1]; P0) was “NAE / NAE”, the “Mammary gland HP; males” value ([1]; P0) was “NAE / NAE” and the Oestrus cyclicity ([1]; P0) was “NAE / NAE”. For the same compound, the “Ovary HP” value ([1]; P0) was “NAE / NAE”, the Ovary weight ([1]; P0) was “NAE / NAE” and the “Oviduct HP” value ([1]; P0) was “NAE / NAE”. The “Pituitary HP” value ([1]; P0) was “NAE / NAE”, the Pituitary weight ([1]; P0) was “NAE / NAE” and the “Prostate HP” value ([1]; P0) was “NAE / NAE”. For the same compound, the Prostate weight ([1]; P0) was “NAE / NAE”, the “Seminal vesicles HP” value ([1]; P0) was “NAE / NAE” and the Seminal vesicles weight ([1]; P0) was “NAE / NAE”. The “Testis HP” value ([1]; P0) was “NAE / NAE”, the Testis weight ([1]; P0) was “NAE / NAE” and the “Thyroid HP” value ([1]; P0) was “NAE / NAE”. For the same compound, the “Thyroid stimulating hormone level” value ([1]; P0) was “NAE / NAE”, the Thyroid weight ([1]; P0) was “NAE / NAE” and the “Triiodothyronine / thyroxine level” value ([1]; P0) was “NAE / NAE”. The “Uterus HP (with cervix)” value ([1]; P0) was “NAE / NAE”, the “Uterus weight (with cervix)” value ([1]; P0) was “NAE / NAE” and the “Vagina HP” value ([1]; P0) was “NAE / NAE”. For the same compound, the Vaginal smears ([1]; P0) was “NAE / NAE”, the “Signs of systemic toxicity” value ([1]; sub-chronic (90-day) oral application) was “did not induce any signs of systemic toxicity” and the “Developmental immunotoxicity (DIT)” value ([2]; DIT cohort) was “did not exhibit”. For the same compound, the “Developmental neurotoxicity (DNT)” value ([2]; DNT cohort) was “did not exhibit DNT”, the “NOAEL, EOGRTS: developmental and reproductive toxicity” value [2] was “NOAEL: 1000 (OECD 443; v 2018) mg/kg body weight/day” and the “NOAEL, EOGRTS: developmental and reproductive toxicity” value ([2]; listed as methyl paraben) was 1000 mg/kg body weight/day. The “Accessory sex organs HP” value ([2]; P0, F1, (F2)) was “NAE / NAE”, the “Adrenals HP” value ([2]; P0, F1, (F2)) was “NAE / NAE” and the Adrenals weight ([2]; P0, F1, (F2)) was “NAE / NAE”. The “Age at balano-preputial separation” value ([2]; P0, F1, (F2)) was “NAE / NAE”, the “Age at vaginal opening” value ([2]; P0, F1, (F2)) was “NAE / NAE” and the Anogenital distance ([2]; P0, F1, (F2)) was “NAE / NAE”. For the same compound, the Auditory startle ([2]; P0, F1, (F2)) was “NAE / NAE”, the “Brain HP” value ([2]; P0, F1, (F2)) was “NAE / NAE” and the Brain morphometric evaluation ([2]; P0, F1, (F2)) was “NAE / NAE”. The Brain weight ([2]; P0, F1, (F2)) was “NAE / NAE”, the “Cervix HP” value ([2]; P0, F1, (F2)) was “NAE / NAE” and the “Coagulating gland HP” value ([2]; P0, F1, (F2)) was “NAE / NAE”. The Coagulating gland weight ([2]; P0, F1, (F2)) was “NAE / NAE”, the “Colloid area (thyroid HP)” value ([2]; P0, F1, (F2)) was “NAE / NAE” and the Dystocia ([2]; P0, F1, (F2)) was “NAE / NAE”. The “Epididymis HP” value ([2]; P0, F1, (F2)) was “NAE / NAE”, the Epididymis weight ([2]; P0, F1, (F2)) was “NAE / NAE” and the Fertility ([2]; P0, F1, (F2)) was “NAE / NAE”. The Foetal development ([2]; P0, F1, (F2)) was “NAE / NAE”, the Functional observation battery ([2]; P0, F1, (F2)) was “NAE [h] / NAE” and the Gestation length ([2]; P0, F1, (F2)) was “NAE / NAE”. The Litter size ([2]; P0, F1, (F2)) was “NAE / NAE”, the Litter viability ([2]; P0, F1, (F2)) was “NAE / NAE” and the Liver weight ([2]; P0, F1, (F2)) was “NAE / NAE”. For the same compound, the “Mammary gland HP; females” value ([2]; P0, F1, (F2)) was “NAE / NAE”, the “Mammary gland HP; males” value ([2]; P0, F1, (F2)) was “NAE / NAE” and the Motor activity ([2]; P0, F1, (F2)) was “NAE / NAE”. For the same compound, the Nipple development ([2]; P0, F1, (F2)) was “NAE / NAE”, the “No. of implantations, corpora lutea” value ([2]; P0, F1, (F2)) was “NAE / NAE” and the “No. of live births” value ([2]; P0, F1, (F2)) was “NAE / NAE”. For the same compound, the “No. of ovarian follicles” value ([2]; P0, F1, (F2)) was “NAE / NAE”, the Oestrus cyclicity ([2]; P0, F1, (F2)) was “NAE / NAE” and the “Offspring: learning & memory” value ([2]; P0, F1, (F2)) was “NAE / NAE”. For the same compound, the “Ovary HP” value ([2]; P0, F1, (F2)) was “NAE / NAE”, the Ovary weight ([2]; P0, F1, (F2)) was “NAE / NAE” and the “Oviduct HP” value ([2]; P0, F1, (F2)) was “NAE / NAE”. For the same compound, the “Pituitary HP” value ([2]; P0, F1, (F2)) was “NAE / NAE”, the Pituitary weight ([2]; P0, F1, (F2)) was “NAE / NAE” and the Postimplantation loss ([2]; P0, F1, (F2)) was “NAE / NAE”. For the same compound, the “Presence of anomalies (external, visceral, skeletal)” value ([2]; P0, F1, (F2)) was “NAE / NAE”, the “Prostate HP” value ([2]; P0, F1, (F2)) was “NAE / NAE” and the Prostate weight ([2]; P0, F1, (F2)) was “NAE / NAE”. The Pup development ([2]; P0, F1, (F2)) was “NAE / NAE”, the Reproduction ([2]; P0, F1, (F2)) was “NAE / NAE” and the “Seminal vesicles HP” value ([2]; P0, F1, (F2)) was “NAE / NAE”. For the same compound, the Seminal vesicles weight ([2]; P0, F1, (F2)) was “NAE / NAE”, the Sperm morphology ([2]; P0, F1, (F2)) was “NAE / NAE” and the Sperm motility ([2]; P0, F1, (F2)) was “NAE / NAE”. For the same compound, the Sperm numbers ([2]; P0, F1, (F2)) was “NAE / NAE”, the “Testis HP” value ([2]; P0, F1, (F2)) was “NAE / NAE” and the Testis weight ([2]; P0, F1, (F2)) was “NAE / NAE”. The “Thyroid HP” value ([2]; P0, F1, (F2)) was “NAE / NAE”, the “Thyroid stimulating hormone level” value ([2]; P0, F1, (F2)) was “NAE / NAE” and the Thyroid weight ([2]; P0, F1, (F2)) was “NAE / NAE”. The Time to mating ([2]; P0, F1, (F2)) was “NAE / NAE”, the “Triiodothyronine / thyroxine level” value ([2]; P0, F1, (F2)) was “NAE / NAE” and the “Uterus HP (with cervix)” value ([2]; P0, F1, (F2)) was “NAE / NAE”. For the same compound, the “Uterus weight (with cervix)” value ([2]; P0, F1, (F2)) was “NAE / NAE”, the “Vagina HP” value ([2]; P0, F1, (F2)) was “NAE / NAE” and the Vaginal smears ([2]; P0, F1, (F2)) was “NAE / NAE”. The “Alterations of the parameters addressed in OECD TG 443” value ([2]; up to 1000 mg/kg bw/day) was “no toxicologically relevant alterations”, the concentration at 1 h ([3]; female, 500 mg/kg) was 0.338 µg/mL and the concentration at 1 h ([3]; female, 1000 mg/kg) was 0.924 µg/mL. It also gave a Tmax ([3]; female, 500 mg/kg) of 4.8 min, an AUC(0-t) ([3]; female, 500 mg/kg, AUC0-1 h, parent compound) of 6.45 µg·h/mL and an AUC(0-t) ([3]; female, 500 mg/kg, AUC0–t, parent compound) of 9.5 µg·h/mL. It also gave a Cmax ([3]; female, 500 mg/kg, parent compound) of 21.2 µg/mL, a Tmax ([3]; female, 1000 mg/kg) of 4.8 min and an AUC(0-t) ([3]; female, 1000 mg/kg, AUC0-1 h, parent compound) of 11.4 µg·h/mL. For the same compound, the AUC(0-t) ([3]; female, 1000 mg/kg, AUC0–t, parent compound) was 20.5 µg·h/mL, the Cmax ([3]; female, 1000 mg/kg, parent compound) was 33.6 µg/mL and the Cmax ([3]; female, 1000 mg/kg, parent compound, females) was roughly 34 µg/mL. For the same compound, the concentration at 1 h ([3]; male, 500 mg/kg) was 0.172 µg/mL, the concentration at 1 h ([3]; male, 1000 mg/kg) was 0.552 µg/mL and the Tmax ([3]; male, 500 mg/kg) was 4.8 min. For the same compound, the AUC(0-t) ([3]; male, 500 mg/kg, AUC0-1 h, parent compound) was 1.11 µg·h/mL, the AUC(0-t) ([3]; male, 500 mg/kg, AUC0–t, parent compound) was 1.79 µg·h/mL and the Cmax ([3]; male, 500 mg/kg, parent compound) was 6.2 µg/mL. It also gave an AUC(0-t) ([3]; male, 1000 mg/kg, AUC0-1 h, parent compound) of 4.64 µg·h/mL, an AUC(0-t) ([3]; male, 1000 mg/kg, AUC0–t, parent compound) of 6.15 µg·h/mL and a Cmax ([3]; male, 1000 mg/kg, parent compound) of 10.8 µg/mL. For the same compound, the Cmax ([3]; male, 1000 mg/kg, parent compound, males) was roughly 11 µg/mL, the “Rank of maximum serum concentration among the four parabens” value ([3]; parent compound) was “highest maximum serum concentrations” and the “AUC0-1 h/AUC0–t” value [3, 7] was 68%. For the same compound, the C1h/Cmax [3, 7] was 1.6%, the Clast [3, 7] was 0.0773 µg/mL and the tlast [3, 7] was 8.0 h. The “AUC0-1 h/AUC0–t” value [3, 8] was 62%, the C1h/Cmax [3, 8] was 2.8% and the Clast [3, 8] was 0.0486 µg/mL. For the same compound, the tlast [3, 8] was 8.0 h, the “AUC0-1 h/AUC0–t” value [3, 9] was 55% and the C1h/Cmax [3, 9] was 2.7%. The Clast [3, 9] was 0.179 µg/mL, the tlast [3, 9] was 8.0 h and the “AUC0-1 h/AUC0–t” value [3, 10] was 75%. The C1h/Cmax [3, 10] was 5.1%, the Clast [3, 10] was 0.122 µg/mL and the tlast [3, 10] was 8.0 h. For the same compound, the “Mutagenicity in bacteria classification” value [4] was “Not mutagenic (OECD 471; 1982, 1991)”, the “Mutagenicity in mammalian cells classification” value [5] was “Not mutagenic [c] (OECD 476; 2019)” and the “Genetic toxicity in vivo (rats) classification” value [6] was “Not clastogenic (OECD 478; 1974) [d]”.
